Results as given in paper PMC5510229, “BCAT1 controls metabolic reprogramming in activated human macrophages and is associated with inflammatory diseases” (Nature Communications, 2017).

Columns and labels:
[1] = system: collagen-induced arthritis (CIA); test: Collagen-induced arthritis (CIA) in mice; assay type: in vivo, DBA/1 mice
From the text: Figure 5 Orally administrated ERG240 reduced the severity of crescentic glomerulonephritis in rats and CIA in mice. (a) Glomerular crescents, serum creatinine, and proteinuria levels measured in vehicle and ERG240 treated rats at day 10 following induction of nephrotoxic nephritis. At least n=4 rats were used in each group. (b) Col1a1 immunofluorescence (IF) quantification (left panel), representative IF and Sirius red staining images (middle panel) and Col1a1 qRT-PCR (normalized to Hprt) 28 days following NTS injection. Original magnification, × 20, at least n=4 animals were used in each group. (c) Clinical progression of CIA measured by the Mean Arthritis Index in vehicle and ERG240-treated animals in both studies (prophylactic and therapeutic, upper panel; at least n=6 animals per group). Histological analysis of joints from representative whole paws scored for inflammation, pannus formation, cartilage damage and bone resorption (lower panel). Error bars are s.e.m. Either Mann–Whitney or Student’s t-test were used for significance. *** P<0.001, ** P<0.01, * P<0.05. Scale bars, 50 μm.
DBA/1 mice (6–8 weeks old from Harlan Sprague Dawley Inc.) were injected s.c. with 100 μg of bovine type II collagen emulsified in complete Freund’s adjuvant (Sigma). At day 21 following primary immunization, the mice were given a booster injection of 100 μg of bovine type II collagen emulsified in incomplete Freund’s adjuvant. The prophylactic arm of the study involved water-treated (vehicle control, n=6) and ERG240-treated (720 mg kg^−1, o.p., qdx5, 3 weeks, n=10) animals, while the therapeutic arm of the study involved water-treated (vehicle control, n=10) and ERG240-treated (1,000 mg kg^−1, o.p., qdx5, 4 weeks, n=10) animals. Parafin-embedded paws were sectioned at ∼5 μm. One slide from each paw was stained with hematoxylin and eosin (H&E) and served as a reference, while four additional slides were stained using antibodies against F4/80 (AbD Serotec). The expression of the above markers in the joints of the preserved CIA tissues was scored according to the following scale: 0=no staining; 1=minimal; 2=mild; 3=moderate; 4=marked; and 5=diffuse and severe staining (see Supplementary Methods for detailed histological evaluation of CIA tissues). Serum levels of TNF and RANKL were analysed using relevant ELISA kits from Biolegend (TNF-α) and Abcam (RANKL) according to the manufacturers’ instructions. Details for determining the presence of antibodies against type II collagen are provided in Supplementary Methods.
Clinical and histological evaluation methods in CIA
Development of arthritis was assessed ever y other da y and scored on a scale of 0-4 as follows: 0=no oedema or swelling, 1=slight oedema and er ythema restricted to the foot or ankle, 2=moderate to severe oedema and er ythema restricted to the foot or ankle, 3 =oedem a and erythema of the entire paw, and 4=maximum inflamed limb i nvolving multiple joints.
The maximal arthritic score or arthritic index (AI) per animal was 16 (cumulative for 4 limbs).Paw thickness was measured before termination of the experiment . […]
Histological evaluation of CIA t issues.
Dosing of the animals in the proph ylactic groups started on the da y of the booster injection (day 21), while dosing of the animals in the therapeutic groups started after arthritis was established (da y 26). Animals were scored for the presence of arthritis ever y other da y and weighed once a week. At the end of the study, sera were obtained b y cardiac puncture and paws were excised for histological examination (HistoTox Labs Inc). From each therap eutic group, three front and four hind paws were selected for histological an al ys is . Paws were fixed in 4% formalin and decalcified in formic acid. Parafin sections (8 µm) were stained with toluidine blue (T-blue). The sections were evaluated blindly and scored for inflammation, pannus infiltration, cartilage damage, and bone erosion according to scale shown here. […]

recombinant human BCAT2 = molecular target: T1, recombinant human BCAT2 (Homo sapiens, UniProt O15382); test: BCAT2 aminotransferase enzymatic assay (continuous fluorometric); assay type: biochemical
T1 construct: purchased Abcam
T1 sequence (O15382 28-392): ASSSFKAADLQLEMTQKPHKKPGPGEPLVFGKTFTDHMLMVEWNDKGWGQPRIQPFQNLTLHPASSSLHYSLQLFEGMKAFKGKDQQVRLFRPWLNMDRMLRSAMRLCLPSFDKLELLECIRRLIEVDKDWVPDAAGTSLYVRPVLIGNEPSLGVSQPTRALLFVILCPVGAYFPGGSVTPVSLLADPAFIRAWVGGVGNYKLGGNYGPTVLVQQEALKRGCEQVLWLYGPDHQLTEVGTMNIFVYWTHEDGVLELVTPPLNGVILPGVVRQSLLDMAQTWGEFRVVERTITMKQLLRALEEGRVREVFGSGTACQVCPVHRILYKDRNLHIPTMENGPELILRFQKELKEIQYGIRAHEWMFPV

[2] = excised paws after completion of CIA

CC(=O)C(C)CCC(=O)O (stereo not shown) [ERG240]
serum Tnf levels ([1]; CIA mice, ELISA): diminished levels | serum Tnfsf11 (RANKL) levels ([1]; CIA mice, ELISA): diminished levels | decrease of bone erosion (paw histology) [1, 2]: 86% | decrease of cartilage degradation (paw histology) [1, 2]: 74% | decrease of inflammation (paw histology) [1, 2]: 53% | decrease of pannus formation (paw histology) [1, 2]: 86% | F4/80+ macrophages in the joints ([1]; immunohistochemistry of excised paws): significant reduction | joint oedema ([1]; only in the fore paws, therapeutic study): significant decrease | severity of CIA (Mean Arthritis Index) ([1]; oral, prophylactic 720 mg kg^−1, therapeutic 1000 mg kg^−1): alleviates the severity of CIA | inhibition of BCAT2 (recombinant human BCAT2): no inhibition
